Read-outs that look alike come from different tables or passages of the source.
How the values were obtained:
[1] = test system: ALOMY; assay: In-planta LTP pre-emergence, visual phenotype; assay type: in vivo, Alopecurus myosuroides; settings: monocot
Description: (§1) A basic panel of 8 weed species (Table 3) were sowed in 4×4×7 cm plastic pots containing inert sand (Sweet sand), intensively washed using osmosis water. Each specie was sowed in a separate pot. In each pot 10-15 seeds were sowed according to the specie viability. Sowing was performed one day before application. The plants were grown for 21 days in a controlled greenhouse (26±2° C. day 20±2° C. night). Hood irrigation (tap water+Shefer 5:3:8 8 mM) was given at a 50% water content by weight. Compounds were soluble in water (DDW), and commercial herbicide control was soluble in formulation B (Table 4). Application was conducted with an industrial sprayer (TeeJet 6502E nozzle) at a rate of 2 kg/ha and spray volume of […]. Pre-emergence advanced dose response experiment application was conducted at six rates between 1-0.0312 kg/ha and spray volume of […]. Percentage of emergence was evaluated at 15 DAA. Visual phenotyping was recorded using a scale of 0-6 (0: no visible effect, 6: maximum effect) at 18 DAA. All experiments included an untreated control, a solvent control and a positive control (commercial herbicide A.I.). Statistical analysis for visual phenotyping determined by a median value of ≥3.5 and Fisher test (pval≤0.05). Statistical analysis for plant emergence determined by % emergence ≥50 and T test (pval≤0.05), as well as Wilcox test (pval≤0.05).

[2] = test system: SETVI; assay: In-planta LTP post-emergence, visual phenotype; assay type: in vivo, Setaria viridis; settings: monocot
Description: (§2) A basic panel of eight weed species (Table 3) sowed in 4×4×7 cm plastic pots containing a garden mix (klasmann). Each specie was sowed in a separate pot. In each pot, 10-15 seeds were sowed according to the specie viability. Timing of application determined at a 1-2 true leaf stage. The plants grew for 30 days in a controlled greenhouse (26±2° C. day, 20±2° C. night). Hood irrigation (tap water+Shefer 5:3:8 8 mM) was given at a 50% water content by weight. Two days before application, the tested plants thinned down to three plants per pot. Compounds were soluble in water (DDW), and commercial herbicide control was soluble in formulation B (Table 4). […] Plants were evaluated at 3 time points (4, 8, 12 days after application (DAA)). At each time point, visual phenotyping was recorded using a scale of 0-6 (0: no visible effect, 6: maximum effect). […]
(§3) Post-emergence advanced dose response experiment included 4 species: SETVI, ECHCO, AMAPA, ABUTH (Tables 3, 5). […] Plants were evaluated at 4 time points (6, 12, 18 and 26 DAA). At each time point, visual phenotyping was recorded using a scale of 0-6 (0: no visible effect, 6: maximum effect). […]
(§4) Post-emergence advanced wide panel experiment included 24 weed species (Table 5). […] Visual phenotyping was recorded at 4, 11, 17 and 20 DAA using a scale of 0-6 (0: no visible effect, 6: maximum effect). […]

[3] = test system: POAAN; assay: In-planta LTP pre-emergence, visual phenotype; assay type: in vivo, Poa annua; settings: monocot; for pest or weed control at 2000 g/ha: Poa annua, 432 h, read-out: IG Inhibited growth (% effect)
Description: as §1

[4] = test system: Eragrostis teff; assay: HTPS - Monocot - Pre-emergence; assay type: in vivo; settings: N/A: not active; for Emax: read-out: HTPS - Monocot - Pre Max effect
In short: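 Pre-emergence: compound in 50% acetone applied at 30 μL/well onto sown sand (Arabidopsis or Eragrostis teff), max 1.5 Kg/Ha, 2.5-fold dilutions. Green area imaged by RGB, normalized to give % inhibition; ED50, ED75, ED90 from log-dose curves, t-test versus controls.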

[5] = test system: SETVI; assay: In-planta LTP pre-emergence, visual phenotype; assay type: in vivo, Setaria viridis; settings: Setaria viridis, 432 h, monocot
In short: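 Compounds in water sprayed pre-emergence one day after sowing 10-15 seeds per pot in washed sand, at 2 kg/ha or six rates from 1-0.0312 kg/ha. Greenhouse 26/20° C day/night. Visual phenotype scored 0-6 at 18 DAA; effect called at median ≥3.5 with Fisher test p≤0.05.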

[6] = test system: Arabidopsis thaliana; assay: HTPS - Dicot - Pre-emergence; assay type: in vivo; settings: N/A: not active; for Emax: read-out: HTPS - Dicot - Pre Max effect
Description: Arabidopsis thaliana seeds were sown in 96 well plates filled with irrigated Sweet sand (10%>clay) that is washed from salts and minerals using tap water. 5-10 seeds were sown in the center of each well. 7-8 days post sowing, at 2 true leaves stage, thinning out was performed to ensure that compound application is done on a single plant per well. The plates were placed in a controlled greenhouse in a random order inside a bath which allows flooding irrigation with tap water supplemented with a fertilizer. Applied compounds were dissolved into a final solution of 50% acetone, 49.9% DDW, 0.1% tween-20. A 96 well plate was used as a stock plate for preparing application solutions for 8 repeats. Each row contained different concentrations per chemical. Maximal concentration for application was 1.5 Kg/Ha and dilution factor is 2.5. Chemical application was performed one day after thinning out in a chemical hood. 5 μL applied on first two true leaves in each well using 12 channel pipettes. Data collection: RGB (red, green, blue) data for green area per well was documented using camera. Data is collected at a few time points during the experiment: one day after thinning and before chemical application, two-, six- or nine-days post application. During the last two documentations, visual phenotyping was performed. Data analysis: Given RGB results and visual phenotype scores, a student t-test conducted to compare between treatment and control performance for continuous data (RGB) and Fisher exact test to analyze the non-continuous data (phenotypic scores). Dose-Response curves are generated for each treatment to infer ED50 and max. inhibition parameters, using treatment's log concentration range as the […] variable and normalized green area. These experiments are conducted similarly except that either Arabidopsis thaliana or Eragrostis teff seeds were sowed (5-10 or 5-7, respectively), plant thinning out was not performed, compound dissolved into a final solution of 50% acetone, 49.9% DDW, compound application was done at 30 μL volume per well directly on sowed soil before plant emergence and data was collected 10 or 7 days after chemical application on dicot or monocot plants, respectively. Plate imaging performed at 11 and 18 DAA. RGB data for green area per well was documented and used to extract % inhibition. Dose-Response curves were built for each treatment to infer ED50, ED75 and ED90 parameters, using treatment's log concentration range as the independent variable and normalized green area as the dependent variable. Treatments were compared to controls performance given RGB results and using student's t-test (p-val≤0.05).

[7] = test system: MATCA; assay: In-planta LTP pre-emergence, visual phenotype; assay type: in vivo, Matricaria chamomilla; settings: dicot
Description: as §1

[8] = test system: ABUTH; assay: In-planta LTP post-emergence, visual phenotype; assay type: in vivo, Abutilon theophrasti; settings: dicot
Description: as §2, §3, §4

[9] = read-out: DE Disturbed emergence (% effect)
[10] = read-out: IG Inhibited growth (% effect)

Structure (SMILES)	BL Bleaching (% effect) [1]	DAB Disturbed apical bud (% effect) [1]	DE Disturbed emergence (% effect) [1]	IG Inhibited growth (% effect) [1]	IG Inhibited growth (% effect) [2]	DE Disturbed emergence (% effect) [3]	HTPS - Monocot - Pre ED50 [4] [g/ha]	Emax [4] [%]	pest or weed control at 2000 g/ha [5, 9] [%]	HTPS - Dicot - Pre ED50 [6] [g/ha]	Emax [6] [%]	pest or weed control at 2000 g/ha [3] [%]	IG Inhibited growth (% effect) [7]	pest or weed control at 2000 g/ha [5, 10] [%]	BL Bleaching (% effect) [8]
C[C@@H](N)COc1cccc(C(=O)O)c1 [Compound 154]	BL (60) %	DAB (60), %	DE (40), %	IG (80), %	IG (60) %	DE (100) %	150	100	100	–	–	–	–	–	–
CCCCOC(=O)c1cccc(OCC(C)N)c1 (stereo not shown) [Compound 112]	–	–	–	–	–	DE (100), %	–	–	80	20	100	100	IG (60) %	100	–
CC(N)COc1cccc(C(=O)O)c1 (stereo not shown) [Compound 106]	–	–	–	–	–	DE (100) %	380	87	100	33	100	100	–	100	BL (60) %
C#CCOC(=O)c1cccc(OCC(C)N)c1 (stereo not shown) [Compound 111]	–	–	–	IG (40) %	IG (60) %	DE (100), %	–	–	100	24	100	100	–	100	BL (40) %

— patent US20240336567A1, “PESTICIDAL AND HERBICIDAL COMPOUNDS AND METHODS OF USE THEREOF” (AG Plenus Ltd, priority 2021, published 2024)
